Like-named read-outs stand apart in the source and are kept apart here.
How the values were obtained:
[1] = test system: ELO(XI); test: ELO(XI) expressed in yeast, conversion of starting materials; type: cell-based, Xenopus laevis; conditions: fed at in each case 250 μM
Protocol: Thereafter, the FAMEs were analyzed via GLC.

[2] = test system: ELO(Ci); test: ELO(Ci) expressed in yeast, conversion of starting materials; type: cell-based, Ciona intestinalis; conditions: fed at in each case 250 μM
Protocol: (holding). […] Biochem. […] Thereafter, the FAMEs were analyzed via GLC.

[3] = test system: PtELO6 (Δ6-elongase); test: PtELO6 expressed in yeast, feeding experiment; conditions: for conversion of fatty acid fed: fed to yeast with pYES2-PtELO6; for % Elongation: fatty acid added at 250 μm
Protocol: The PCR products were incubated for 30 minutes at 21° C. with the yeast expression vector pYES2.1-TOPO (Invitrogen) following the manufacturer's instructions. The PCR product (see SEQ ID NO: 192) was ligated into the vector by means of a T-overhang and the activity of a topoisomerase (Invitrogen). After the incubation, E. coli DH5α cells were transformed. Suitable clones were identified by PCR, the plasmid DNA was isolated by means of the Qiagen DNAeasy kit and verified by sequencing. The correct sequence was then transformed into the Saccharomyces strain INVSc1 (Invitrogen) by electroporation (1500 V). As a control, the blank vector pYES2.1 was transformed in parallel. Thereafter, the yeasts were plated of minimal dropout uracil medium supplemented with 2% glucose. Cells which were capable of growing in the medium without uracil thus comprise the corresponding plasmids pYES2.1 and pYES2.1-PtELO6. After the selection, in each case two transformants were chosen for the further functional expression.
The yeast cells from the main cultures were harvested by centrifugation (100×g, 5 min, 20° C.) and washed with 100 mM NaHCO3, pH 8.0 to remove residual medium and fatty acids. Starting with the yeast cell sediments, fatty acid methyl esters (FAMEs) were prepared by acid methanolysis. To this end, the cell sediments were incubated for one hour at 80° C. together with 2 ml of 1 N methanolic sulfuric acid and 2% (v/v) of dimethoxypropane. The FAMEs were extracted twice with petroleum ether (PE). To remove nonderivatized fatty acids, the organic phases were washed in each case once with 2 ml of 100 mM NaHCO3, pH 8.0 and 2 ml of distilled water. Thereafter, the PE phases were dried with Na2SO4, evaporated under argon and taken up in 100 μl of PE. The samples were separated on a DB-23 capillary column (30 m, 0.25 mm, 0.25 μm, Agilent) in a Hewlett-Packard 6850 gas chromatograph equipped with flame ionization detector. The conditions for the GLC analysis were as follows: the oven temperature was programmed from 50° C. to 250° C. with a rate of 5° C./min and finally 10 min at 250° C. (holding).
The signals were identified by comparing the retention times with corresponding fatty acid standards (Sigma).
Feeding experiment: fatty acids (in bold) were added at in each case 250 μm.
The yeasts which had been transformed with the vector pYES2-PtELO6 were grown in minimal medium in the presence of the fatty acids stated. The fatty acid methyl esters were synthesized by subjecting intact cells to acid methanolysis. Thereafter, the FAMEs were analyzed via GLC.

[4] = test system: OtElo2.1 (Δ6-elongase); type: cell-based, Ostreococcus tauri
[5] = test system: TpELO3 (Δ6-elongase); type: cell-based, Thalassiosira pseudonana
[6] = test system: OtElo2 (Δ6-elongase); type: cell-based, Ostreococcus tauri
[7] = test system: TL16y2; test: TL16y2 expressed in yeast, feeding experiments; type: cell-based, Thraustochytrium ssp.; conditions: in comparison with the control
Protocol: The substrate specificity of BioTaurELO1 was determined after expression and feeding of various fatty acids (FIG. 6). […] After the fatty acids had been extracted from the yeasts, they were transmethylated and separated by gas chromatography. The elongation products obtained from the two fatty acids which had been fed are identified by arrows.
The functionality and substrate specificity of TL16y2 was determined after expression and feeding of various fatty acids. […] The feeding experiments were carried-out in the same manner as described for BioTaurELO1. The substrates fed can be detected in large amounts in all transgenic yeasts. […] This means that functional expression of the gene TL16y2 has been possible.

[8] = test system: Δ6-desaturase OtDes6.1, Δ6-elongase PSE1 and Δ5-desaturase PtD5; test: Reconstitution of ARA and EPA pathways in yeast: OtDes6.1 with PSE1 and PtD5; type: cell-based, Saccharomyces cerevisiae; conditions: for elongation by Δ6-elongase PSE1 to DHGLA and DHSTA: products of OtDes6.1 from LA and ALA (FIG. 21)
From the text: The subsequent desaturation by the Δ5-desaturase PtD5 to give ARA and EPA, respectively, is also problem-free. Approximately 25-30% of the elongase product is desaturated (FIGS. 21 B and D).

[9] = test system: OmElo3, EgD4 and P. tricornutum Δ5-desaturase (PtD5); test: Reconstitution of DHA synthesis in yeast: coexpression of OmElo3, EgD4 and PtD5; type: cell-based, Saccharomyces cerevisiae; conditions: fed 18:4 ω3
Protocol: The reconstitution of the biosynthesis of DHA (22:6 ω3) was carried out starting from EPA (20:5 ω3) or stearidonic acid (18:4 ω3) by coexpressing OmElo3 together with the Euglena gracilis Δ4-desaturase or the Phaeodactylum tricomutum Δ5-desaturase and the Euglena gracilis Δ4-desaturase. To this end, the expression vectors pYes2-EgD4 and pESCLeu-PtD5 were additionally constructed. The abovementioned yeast strain which is already transformed with pYes3-OtElo3 (SEQ ID NO: 55), was transformed further with pYes2-EgD4, or simultaneously with pYes2-EgD4 and pESCLeu-PtD5. […] The cultures were incubated for a further 120 hours at 15° C.
In a further coexpression experiment, OmElo3, EgD4 and a P. tricornutum Δ5-desaturase (PtD5) were expressed together. The transgenic yeasts were fed stearidonic acid (18:4 ω3) and they were analyzed (FIG. 4). The fatty acid fed, 18:4 ω3, was elongated by OmElo3 to give 20:4 ω3 (60% elongation). The latter was desaturated by PtD5 to give 20:5 ω3. The PtD5 activity was 15%. Moreover, it was possible to elongate 20:5 ω3 by OmElo3 to give 22:5 ω3. Thereafter, the newly synthesized 22:5 ω3 was desaturated to 22:6 ω3 (DHA). Up to 0.7% of DHA was obtained in these experiments.

[10] = test system: OtElo1 (Δ5-elongase); type: cell-based, Ostreococcus tauri; conditions: Table 15; yeast with pOTE1
[11] = test system: OtElo1.2 (Δ5-elongase); type: cell-based, Ostreococcus tauri; conditions: Table 15; yeast with pOTE1.2
[12] = test system: TpELO1 (Δ5-elongase); test: TpELO1 expressed in yeast, feeding experiments; conditions: 250 μM fatty acid fed
Protocol: The PCR products were incubated for 30 minutes at −21° C. with the yeast expression vector pYES2.1-TOPO (Invitrogen) following the manufacturer's instructions. The PCR product was ligated into the vector by means of a T-overhang and the activity of a topoisomerase (Invitrogen). After the incubation, E. coli DH5α cells were transformed. Suitable clones were identified by PCR, the plasmid DNA was isolated by means of the Qiagen DNAeasy kit and verified by sequencing. The correct sequence was then transformed into the Saccharomyces strain INVSc1 (Invitrogen) by electroporation (1500 V). As a control, the blank vector pYES2.1 was transformed in parallel. Thereafter, the yeasts were plated out on minimal dropout uracil medium supplemented with 2% glucose. Cells which were capable of growing in the medium without uracil thus comprise the corresponding plasmids pYES2.1, pYES2.1-TpELO1, pYES2.1-ELO2 and pYES2.1-TpELO3. After the selection, in each case two transformants were chosen for the further functional expression.
The yeast cells from the main cultures were harvested by centrifugation (100×g, 5 min, 20° C.) and washed with 100 mM NaHCO3, pH 8.0 to remove residual medium and fatty acids. […]
The yeasts which had been transformed with the vector pYES2-TpELO1 were grown in minimal medium in the presence of the fatty acids stated. […] Thereafter the FAMEs were analyzed by GLC.

[13] = test system: OmElo3; test: OmElo3 expressed in yeast, feeding of fatty acids, GC of FAMEs; type: cell-based, Oncorhynchus mykiss; conditions: yeast with pYes3-OmElo3 and blank vector pYes2, fed 20:5 ω3
[14] = test system: OmELO2; test: OmELO2 expressed in yeast, feeding of fatty acids; type: cell-based, Oncorhynchus mykiss; conditions: expression in yeast
[15] = test system: At3g06470; test: At3g06470 expressed in yeast, elongation of EPA; conditions: feeding with 250 uM EPA
From the text: (§1) To characterize the function of the A. thaliana desaturases, the open reading frame of the DNA in question is cloned downstream of the galactose-inducible GALL promoter of pYES2.1/V5-His-TOPO (Invitrogen), giving rise to the corresponding pAt60 and pAt70 clones.
(§2) The Saccharomyces cerevisiae strain 334 is transformed with the vectors pAt60 and pAt70, respectively by electroporation (1500 V). A yeast which is transformed with the blank vector pYES2.1 is used for control purposes. The transformed yeasts are selected on complete minimal medium (CMdum) agar plates supplemented with 2% glucose, but lacking uracil. After the selection, in each case three transformants are chosen for the further functional expression.
(§3) To express the At elongases, precultures of in each case 5 ml of CMdum liquid medium supplemented with 2% (w/v) raffinose, but without uracil, were inoculated with the selected transformants and incubated for 2 hours at 30° C., 200 rpm.
(§4) 5 ml of CMdum liquid medium (without uracil) supplemented with 2% of raffinose and 300 μM various fatty acids were then inoculated with the precultures to an OD600 of 0.05. Expression was induced by the addition of 2% (w/v) galactose. The cultures were incubated for a further 96 hours at 20° C. […]

[16] = test system: At3g06460; test: At3g06460 expressed in yeast, elongation of EPA; conditions: feeding with 250 uM EPA
From the text: as §1, §2, §3, §4

Molecule: CCCCCCCCCCCCCCCC(=O)O [16:0, palmitic acid]
- Conversion of the starting materials by ELO(XI) in % [1]: 3%
- Conversion of the starting materials by ELO(Ci) in % [2]: 0%

Molecule: CCCCCCCCCCCCCCCCCC(=O)O [18:0, stearic acid]
- Conversion of the starting materials by ELO(XI) in % [1]: 2%
- Conversion of the starting materials by ELO(Ci) in % [2]: 0%

Molecule: CCCCCCC=CCCCCCCCCCC(=O)O [18:1^Δ11]
- conversion of fatty acid fed [3]: not converted

Molecule: CCCCC/C=C\C/C=C\CCCCCCCC(=O)O [18:2^Δ9,12, linoleic acid]
- % Elongation [3]: 0.99%

Molecule: CCCCC/C=C\C/C=C\CC/C=C\CCCC(=O)O [18:3^Δ5,9,12, pinolenic acid]
- Conversion of the starting materials by ELO(XI) in % [1]: 13%
- Conversion of the starting materials by ELO(Ci) in % [2]: 38%

Molecule: CCCCC/C=C\C/C=C\C/C=C\CCCCC(=O)O [18:3^Δ6,9,12, γ-linolenic acid]
- Conversion rate (in %) OtELO2.1 [4]: 55.7%
- % conversion rate [5]: 75%
- Conversion rate (in %) OtElo2 [6]: 15.3%
- % conversion rate ([7]; 250 μM fatty acid fed): 74.9%
- elongation by Δ6-elongase PSE1 to DHGLA and DHSTA [8]: elongated almost quantitatively

Molecule: CC/C=C\C/C=C\C/C=C\C/C=C\CCCCC(=O)O [18:4^Δ6,9,12,15, stearidonic acid]
- Conversion rate (in %) OtELO2.1 ([4]; Table 16, yeast with pOTE2.1): 70.4%
- % conversion rate ([5]; 250 μM of each fatty acid fed): 85%
- elongation by OmElo3 to 20:4 ω3 [9]: 60%
- Conversion rate (in %) OtElo2 ([6]; Table 16, yeast with pOTE2): 21.1%
- % conversion rate ([7]; 250 μM fatty acid fed): 79.4%
- elongation by Δ6-elongase PSE1 to DHGLA and DHSTA [8]: elongated almost quantitatively
- % Elongation [3]: 76.32%

Molecule: CCCCC/C=C\C/C=C\C/C=C\CCCCCCC(=O)O [20:3^Δ8,11,14, dihomo-γ-linolenic acid]
- conversion of fatty acid fed [3]: not converted
- Conversion of the starting materials by ELO(XI) in % [1]: 5%
- Conversion of the starting materials by ELO(Ci) in % [2]: 10%

Molecule: CC/C=C\C/C=C\C/C=C\CCCCCCCCCC(=O)O [20:3^Δ11,14,17]
- conversion of fatty acid fed [3]: not converted
- Conversion of the starting materials by ELO(Ci) in % [2]: 8%

Molecule: CCCCC/C=C\C/C=C\C/C=C\C/C=C\CCCC(=O)O [20:4^Δ5,8,11,14, arachidonic acid]
- Conversion rate (in %) OtElo1 [10]: 10.8 ± 0.6%
- % conversion rate ([5]; 250 μM of each fatty acid fed): 0%
- Conversion rate (in %) OtElo1.2 [11]: 38.0%
- % conversion rate ([7]; 250 μM fatty acid fed): 20.3%
- Conversion of the starting materials by ELO(XI) in % [1]: 15%
- % conversion rate [12]: 1.7%
- Conversion of the starting materials by ELO(Ci) in % [2]: 10%

Molecule: CC/C=C\C/C=C\C/C=C\C/C=C\C/C=C\CCCC(=O)O [20:5^Δ5,8,11,14,17, eicosapentaenoic acid]
- Conversion rate (in %) OtElo1 [10]: 46.8 ± 3.6%
- % conversion rate ([5]; 250 μM of each fatty acid fed): 0%
- Conversion rate (in %) OtElo1.2 [11]: 68.6%
- elongation of 20:5 ω3 to 22:5 ω3 [13]: 65%
- % conversion rate ([7]; 50 μM fatty acid fed): 41%
- % conversion rate ([7]; 250 μM fatty acid fed): 8%
- % conversion rate [12]: 12.2%

Molecule: CCCCCC=CCC=CCC=CCC=CCCCCCC(=O)O [22:4^Δ7,10,13,16, docosatetraenoic acid]
- conversion of fatty acid fed [3]: not converted
- Conversion of the starting materials by ELO(XI) in % [1]: 0%
- Conversion of the starting materials by ELO(Ci) in % [2]: 0%

Molecule: eicosadienoic acid [20:2^Δ11,14]
- conversion of fatty acid fed [3]: not converted

B1: OmELO2: Oncorhynchus mykiss elongase gene product, SEQ ID NO: 51 (protein)
chain: MASTWQSVQSMRQWILENGDKRTDPWLLVYSPMPVAIIFLLYLGVVWAGPKLMKRREPVDLKAVLIVYNFAMVCLSVYMFHEFLVTSLLSNYSYLCQPVDYSTSPLAMRMAKVCWWFFFSKVIELADTVFFILRKKNSQLTFLHVYHHGTMIFNWWAGVKYLAGGQSFFIGLLNTFVHIVMYSYYGLAALGPHTQKYLWWKRYLTSLQLLQFVLLTTHTGYNLFTECDFPDSMNAVVFAYCVSLIALFSNFYYQSYLNRKSKKT
modifications: Oncorhynchus mykiss; CDS (1)..(795) delta5-elongase
- elongase activity [14]: no elongase activity

B2: At3g06470: Arabidopsis thaliana elongase, SEQ ID NO: 137 (protein, listed as Arabidopsis thaliana)
chain: MASIYSSLTYWLVNHPYISNFTWIEGETLGSTVFFVSVVVSVYLSATFLLRSAIDSLPSLSPRILKPITAVHSLILCLLSLVMAVGCTLSITSSHASSDPMARFLHAICFPVDVKPNGPLFFWAQVFYLSKILEFGDTILIILGKSIQRLSFLHVYHHATVVVMCYLWLRTRQSMFPIALVTNSTVHVIMYGYYFLCAVGSRPKWKRLVTDCQIVQFVFSFGLSGWMLREHLFGSGCTGIWGWCFNAAFNASLLALFSNFHSKNYVKKPTREDGKKSD
modifications: CDS (1)..(837) delta5-elongase
- Conversion rate of EPA [15]: At3g06470: 4.1%

B3: At3g06460: Arabidopsis thaliana elongase, SEQ ID NO: 135 (protein, listed as Arabidopsis thaliana)
chain: MASVYSTLTYWLVHHPYIANFTWTEGETLGSTVFFVFVVVSLYLSATFLLRYTVDSLPTLGPRILKPITAVHSLILFLLSLTMAVGCTLSLISSSDPKARLFDAVCFPLDVKPKGPLFFWAQVFYLSKILEFVDTLLIILNKSIQRLSFLHVYHHATVVILCYLWLRTRQSMFPVGLVLNSTVHVIMYGYYFLCAIGSRPKWKKLVTNFQMVQFAFGMGLGAAWMLPEHYFGSGCAGIWTVYFNGVFTASLLALFYNFHSKNYEKTTTSPLYKIESFIFIHGERWANKAITLFSKKND
modifications: CDS (1)..(897) delta5-elongase
- Conversion rate of EPA [16]: At3g06460: 3.0%

B4: PtD5: Phaeodactylum tricornutum Δ5-desaturase, SEQ ID NO: 5 (protein, listed as Phaeodactylum tricornutum)
chain: MAPDADKLRQRQTTAVAKHNAATISTQERLCSLSSLKGEEVCIDGIIYDLQSFDHPGGETIKMFGGNDVTVQYKMIHPYHTEKHLEKMKRVGKVTDFVCEYKFDTEFEREIKREVFKIVRRGKDFGTLGWFFRAFCYIAIFFYLQYHWVTTGTSWLLAVAYGISQAMIGMNVQHDANHGATSKRPWVNDMLGLGADFIGGSKWLWQEQHWTHHAYTNHAEMDPDSFGAEPMLLFNDYPLDHPARTWLHRFQAFFYMPVLAGYWLSAVFNPQILDLQQRGALSVGIRLDNAFIHSRRKYAVFWRAVYIAVNVIAPFYTNSGLEWSWRVFGNIMLMGVAESLALAVLFSLSHNFESADRDPTAPLKKTGEPVDWFKTQVETSCTYGGFLSGCFTGGLNFQVEHHLFPRMSSAWYPYIAPKVREICAKHGVHYAYYPWIHQNFLSTVRYMHAAGTGANWRQMARENPLTGRA
modifications: CDS (1)..(1410) delta5-desaturase
- PtD5 activity (desaturation of 20:4 ω3 to 20:5 ω3) [9]: 15%
- share of the elongase product desaturated by Δ5-desaturase PtD5 ([8]; to ARA and EPA (FIGS. 21 B and D)): 25-30%
